{"source": "patent US8470779B2", "about": "“Catecholamine regulated protein” (CRP40 Inc., priority 2005, dated 2013)", "molecules": {"B1": {"name": "CRP40 protein: 346 amino acid catecholamine-regulated protein, SEQ ID NO: 8 (protein, listed as Homo sapiens)", "chain": "MDSSGPKHLNMKLTRAQFEGIVTDLIRRTIAPCQKAMQDAEVSKSDIGEVILVGGMTRMPKVQQTVQDLFGRAPSKAVNPDEAVAIGAAIQGGVLAGDVTDVLLLDVTPLSLGIETLGGVFTKLINRNTTIPTKKSQVFSTAADGQTQVEIKVCQGEREMAGDNKLLGQFTLIGIPPAPRGVPQIEVTFDIDANGIVHVSAKDKGTGREQQIVIQSSGGLSKDDIENMVKNAEKYAEEDRRKKERVEAVNMAEGIIHDTETKMEEFKDQLPADECNKLKEEISKMRELLARKDSETGENIRQAASSLQQASLKLFEMAYKKMASEREGSGSSGTGEQKEDQKEEKQ"}}, "key": {"[1]": {"test_system": "human CRP40 expression in DRD2 transfected SH-SY5Y human neuroblastoma cells", "assay": "Western immunoblotting of BQ/human CRP40 expression in DRD2 transfected SH-SY5Y cells", "type": "cell-based", "settings": "100 μM; for BQ expression compared to controls: overnight, DA D2 receptor transfected SH-SY5Y cells", "method": "The pcDNA 3.1(+) vector was introduced into SH-S Y5 Y cells by lipofection method (Invitrogen Life Science technology. U.S.A.). Briefly, 24 μg of DRD2 plasmid DNA was mixed with 1.5 ml of Opti MEM media and 60 μl of lipofectamine 2000 reagent was added and mixed with 1.5 ml of Opti MEM media and SH-SY5Y cells. Geneticin-resistant clones stably expressing the D2L receptor were screened by a [3H] spirerone-binding assay and was maintained in RPMI medium (RPMI contained 10% fetal bovine serum, 1 mM glutamate, 50 U/ml of penicillin, and 50 U/ml of streptomycin) with 200 μg/ml of geneticin. Cells were grown to confluency (5-6 days following sub-culturing) in fresh RPMI medium.\nSH-SY5Y cells were scraped off and this procedure was repeated a second time. The cells were incubated 5 min, centrifuged at 2000 rpm for 5 min and the supernatant was discarded. The pellet was re-suspended in 0.5 ml 0.35M sucrose buffer (wPMSF), homogenized and centrifuged at 1000 g for 10 min. The supernatant was centrifuged and the pellet was re-suspended in a 0.32M sucrose buffer (wPMSF), homogenized, and centrifuged. The pellet was re-suspended 0.053 ml Tris-EDTA PMSF and labeled as nuclear fraction 1. The supernatant was centrifuged and the resulting supernatant was stored and labeled cytosolic fraction 1. The remaining pellet was re-suspended in 0.150 ml Tris-EDT A-PMSF and labeled mitochondrial fraction 1.\nThe cells were exposed to the neurotransmitter and/or the neuroleptic (antipsychotic) and left overnight. Western immunoblotting with BQ primary antibody was performed, followed by immunoblotting with polyclonal conjugated horseradish peroxidase secondary antibody."}, "human CRP40": {"test_system": "human CRP40", "assay": "Immunohistochemistry localization of human CRP40 in post-mortem nucleus accumbens", "settings": "post-mortem NA slide of schizophrenic patient treated with large doses of HAL", "experimental": "Three slides were chosen from the 60 samples generously donated by The Stanley Foundation. The slides consisted of: 1) control; 2) schizophrenia patient-drug free; 3) schizophrenic patient-15000K, HAL-treated. The slides were incubated with 4% formaldehyde and diluted in PBS for 30 min. Immediately following, washed sections 3 times with PBS for 5 min, each time and dried off each slide as close as possible to the tissue and outlined the section with the hydrophobic pen. The sections were then blocked by incubating sections with 3% normal goat serum*(NGS) (diluted in PBS containing 0.6% Triton X-100) for 1 h. Next, incubated slides with primary human CRP40 polyclonal antibody diluted in PBS containing 0.6% Triton X-100 (and 3% NGS if necessary) overnight at 4° C. (wrapped in aluminum foil). The following day, the slides were washed 3 times with PBS for 5 min, each time, and incubated slides with FITC secondary antibody diluted in PBS containing 0.6% Triton X-100 for 4 h. Next, the sections were washed 6 times in PBS and slides were mounted with appropriate cover-slips and fixed with nail polish.\nThree slides containing post mortem brain specimens of the NA were used in immunohistochemistry studies. […] The next day, the slides were analyzed using a confocal microscope (McMaster University)."}, "[2]": {"molecular_target": "T1, recombinant human CRP40 (BQ-fusion protein) (Homo sapiens, UniProt P38646)", "T1 construct": "a fragment of 720 base pairs (Genbank #BQ224193) was amplified; GST (Schistosoma japonicum glutathione S-transferase, pGEX-2T) (N); made in house; host or cells: E. coli BL21 (pGEX-2T)", "T1 sequence (P38646 334-578 E571K/D572N/R574P)": "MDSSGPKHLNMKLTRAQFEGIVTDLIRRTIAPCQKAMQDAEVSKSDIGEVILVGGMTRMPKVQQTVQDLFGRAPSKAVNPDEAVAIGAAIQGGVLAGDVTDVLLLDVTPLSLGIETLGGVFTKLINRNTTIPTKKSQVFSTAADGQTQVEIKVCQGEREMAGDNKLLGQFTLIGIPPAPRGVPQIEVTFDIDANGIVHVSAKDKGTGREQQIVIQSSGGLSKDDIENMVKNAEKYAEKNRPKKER", "assay": "[3H]-NPA protein-binding assay with BQ-fusion protein", "settings": "100 μM, third of three NPA entries", "method": "Briefly, the assays were performed in triplicate and consisted of the following solutions and protocol: 50 mM TRIS, 5.0 mM mgCl2, 1.0 mM EDTA, 0.ImM DTT, 0.ImM PMSF, 100 mg/ml Bacitracin and 5.0 mg/ml soybean trypsin; DA (mw=189.6) was dissolved in 0.1% ascorbic acid; each tube was vortexed briefly and incubated in a shaking water bath at 37° C., for 2 h; receptor binding equipment (Brandel, U.S.A.) washed 3 times with distilled water; then repeated washes in assay buffer, 50 nM TRIS, 1 mM EDTA, pH 7.4; 18 test-tubes were set on the binding platform and fiberglass filter paper was put on the platform. The samples were passed through the filter paper with 3 consecutive washes; placed in the scintillation tubes and 5.0 ml Biodegradable Counting Scintillant was added and radioactive counts were measured (Amersham, U.S.A.).\nThe first protein binding study involved [3+H]NPA and 3 different concentrations of displacement molecules (DA, NPA), 100 μM, 10 μM and 1 μM, respectively. Following protein binding, DPM counts were performed in a Beckman scintillation counter."}, "[3]": {"test_system": "6-OHDA lesioned hemi-Parkinson's rat model", "assay": "Apomorphine-induced turning behaviour after striatal injection", "type": "in vivo", "settings": "for apomorphine-induced rotational symptoms: striatal injection on lesioned side", "from_the_text": "This research study examined the potential of CRP40 as a therapeutic in Parkinson's disease (PD). It has been shown herein that dopamine (DA) can modulate CRP40 expression. Further, knockdown of CRP40 in the medial prefrontal cortex (mPFC) caused deficits in DA-dependant behaviours related to human disease. This study investigated whether the introduction of CRP40 into the lesioned region of a rat model of PD would reduce or reverse symptoms associated with PD compared to control animals. This model is a well-established one in which the nigrostriatal system is hemi-laterally lesioned by injection of the cytotoxin 6-hydroxydopamine (6-OHDA). These animals show phenotypic rotating behaviour as a result of the hemi-lesion.\n(§1) The treatment groups were the following: Group 1 (n=3; males) were hemi-lesioned animals treated with a sham injection (CSF) to the Striatum; Group 2 (n=3; males) were hemi-lesioned animals treated with Mortalin2 plasmid injection to the Striatum; Group 3 (n=3; males) were hemi-lesioned animals treated with CRP40 plasmid injection to the Striatum; Group 4 (n=2; males) were hemi-lesioned animals treated with Mortalin2 protein injection to the Striatum; Group 5 (n=2; males) were hemi-lesioned animals treated with CRP40 protein injection to the Striatum; Group 6 (n=3; males) were controls, non-lesioned, and received a CSF injection to the Striatum.\nOnce the animals were comfortable with the experimenter, they were subjected to a series of behavioural tests for baseline measures. In addition to the apomorphine-induced rotation, other tests included prepulse inhibition (PPI) and locomotor activity tests. The apomorphine-induced rotations test involves giving each animal a subcutaneous injection of apomorphine according to body weight. Since the animals are lesioned hemi-laterally at the nigrostriatal pathway, they show compulsive turning behaviour in a direction contra-lateral to the lesion. For this project, there was interest in the number of rotations each animal made in a ten minute testing period. PPI is a test of sensorimotor gating where animals are exposed to a startling acoustic pulse. This pulse, however, follows a subtle pre-pulse which allows for inhibition of the startle response. Locomotor activity test involves cubic chambers lined with infrared sensors that detect any and all movements made by the animal over a three hour testing period. For this experiment “total distance travelled” measurements were of interest.\nOnce all baseline data was collected, the rats were placed under gaseous anaesthesia and injected, via cannulae, with one of the five following treatments: CSF sham (Striatal n=3), CRP40 plasmid DNA (Striatal n=3), MOT-2 plasmid DNA (Striatal n=3), CRP40 protein (Striatal n=2), MOT-2 protein (Striatal n=2). […]"}, "[4]": {"test_system": "6-OHDA lesioned hemi-Parkinson's rat model", "assay": "HPLC of DA levels in SN and striatum", "type": "in vivo", "settings": "striatal-injected rats", "from_the_text": "as §1\nOnce all baseline data was collected, the rats were placed under gaseous anaesthesia and injected, via cannulae, with one of the five following treatments: CSF sham (Striatal n=3), CRP40 plasmid DNA (Striatal n=3), MOT-2 plasmid DNA (Striatal n=3), CRP40 protein (Striatal n=2), MOT-2 protein (Striatal n=2).\nAfter recovery from surgery, all animals were again tested using the same behavioural methods for post-intervention measures. PPI and locomotor activity were tested at 7 and 14 days post-injection, and apomorphine-induced rotation was tested at various time points between days 2 and 14 post-injection. On day 15 post-injection, all rats were sacrificed. […]"}}}
{"molecule": "NCCc1ccc(O)c(O)c1", "note": "[DA, dopamine]", "values": [{"measurement": "human CRP40 protein expression in the nuclear fraction relative to control cells", "setting": "[1]; SH-SY5Y nuclear fraction", "result": "significant increase"}, {"measurement": "BQ expression compared to controls", "setting": "[1]", "result": "significant increase"}]}
{"molecule": "O=C(CCCN1CCC(O)(c2ccc(Cl)cc2)CC1)c1ccc(F)cc1", "note": "[Haloperidol, haloperidol]", "values": [{"measurement": "BQ expression compared to controls", "setting": "[1]", "result": "significant increase"}, {"measurement": "localization of human CRP40 antibody staining", "setting": "human CRP40", "result": "located almost exclusively within the nucleus"}]}
{"molecule": "CCCN1CCc2cccc3c2[C@H]1Cc1ccc(O)c(O)c1-3", "note": "[NPA, N-propylnorapomorphine]", "values": [{"measurement": "amount of displacement of [3H]NPA", "setting": "[2]", "result": 64.3, "unit": "%"}]}
{"molecule": "B1", "values": [{"measurement": "apomorphine-induced rotational symptoms", "setting": "[3]; day 10 post-injection", "result": "alleviated"}, {"measurement": "apomorphine-induced rotational symptoms", "setting": "[3]; day 14 post-injection", "result": "beginning to increase again"}, {"measurement": "apomorphine-induced rotational symptoms", "setting": "[3]; days 4 and 7 post-injection", "result": "reversal of rotational symptoms"}, {"measurement": "apomorphine-induced rotational symptoms, overall", "setting": "[3]; striatal injection, no time point stated", "result": "completely reversed"}, {"measurement": "levels of DA in the SN & striatum (HPLC)", "setting": "[4]", "result": "increase in dopamine concentration at both the SN and the striatum"}]}
